Patent US9693556B2, “Herbicidal pyridazinone derivatives” (SYNGENTA LIMITED, priority 2011, dated 2017)

Key:
Format in all cases: in vivo
[1] = system: Alopecurus myosuroides (ALOMY); assay: Pre-emergence herbicidal glasshouse test on Alopecurus myosuroides; settings: pre-emergence; 1000 g/h; evaluated after 13 days
Outline: (§1)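 Scoring scale: 5=80-100%, 4=60-79%, 3=40-59%, 2=20-39%, 1=0-19% damage, assessed on day 13. Compound sprayed at 1000 g/h on soil-grown plants (day 1 pre-, day 8 post-emergence) kept at 24/16 °C, 14 h light.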

Setaria faberi (SETFA) [2] = assay: Pre-emergence herbicidal glasshouse test on Setaria faberi; settings: pre-emergence; 1000 g/h; evaluated after 13 days
Outline: as §1

[3] = system: Echinochloa crus-galli (ECHCG); assay: Pre-emergence herbicidal glasshouse test on Echinochloa crus-galli; settings: pre-emergence; 1000 g/h; evaluated after 13 days
Outline: as §1

Solanum nigrum (SOLNI) [4] = assay: Pre-emergence herbicidal glasshouse test on Solanum nigrum; settings: pre-emergence; 1000 g/h; evaluated after 13 days
Outline: as §1

[5] = system: Amaranthus retoflexus (AMARE); assay: Pre-emergence herbicidal glasshouse test on Amaranthus retoflexus; settings: pre-emergence; 1000 g/h; evaluated after 13 days
Outline: as §1

[6] = system: Ipomoea hederacea (IPOHE); assay: Pre-emergence herbicidal glasshouse test on Ipomoea hederacea; settings: pre-emergence; 1000 g/h; evaluated after 13 days
Outline: as §1

[7] = system: Alopecurus myosuroides (ALOMY); assay: Post-emergence herbicidal glasshouse test on Alopecurus myosuroides; settings: post-emergence; 1000 g/h; evaluated after 13 days
Outline: as §1

Setaria faberi (SETFA) [8] = assay: Post-emergence herbicidal glasshouse test on Setaria faberi; settings: post-emergence; 1000 g/h; evaluated after 13 days
Outline: as §1

[9] = system: Echinochloa crus-galli (ECHCG); assay: Post-emergence herbicidal glasshouse test on Echinochloa crus-galli; settings: post-emergence; 1000 g/h; evaluated after 13 days
Outline: as §1

Solanum nigrum (SOLNI) [10] = assay: Post-emergence herbicidal glasshouse test on Solanum nigrum; settings: post-emergence; 1000 g/h; evaluated after 13 days
Outline: as §1

[11] = system: Amaranthus retoflexus (AMARE); assay: Post-emergence herbicidal glasshouse test on Amaranthus retoflexus; settings: post-emergence; 1000 g/h; evaluated after 13 days
Outline: as §1

[12] = system: Ipomoea hederacea (IPOHE); assay: Post-emergence herbicidal glasshouse test on Ipomoea hederacea; settings: post-emergence; 1000 g/h; evaluated after 13 days
Outline: as §1

Row | Compound | PRE Application ALOMY herbicidal damage (five point scale) [1] | PRE Application SETFA herbicidal damage (five point scale) (Setaria faberi (SETFA) [2]) | PRE Application ECHCG herbicidal damage (five point scale) [3] | PRE Application SOLNI herbicidal damage (five point scale) (Solanum nigrum (SOLNI) [4]) | PRE Application AMARE herbicidal damage (five point scale) [5] | PRE Application IPOHE herbicidal damage (five point scale) [6] | POST Application ALOMY herbicidal damage (five point scale) [7] | POST Application SETFA herbicidal damage (five point scale) (Setaria faberi (SETFA) [8]) | POST Application ECHCG herbicidal damage (five point scale) [9] | POST Application SOLNI herbicidal damage (five point scale) (Solanum nigrum (SOLNI) [10]) | POST Application AMARE herbicidal damage (five point scale) [11] | POST Application IPOHE herbicidal damage (five point scale) [12]
1 | C=C(C)Cn1cccc(-c2cnn(C)c(=O)c2O)c1=O [Compound 9.007] | 1 (1=0-19% damage) | 1 (1=0-19% damage) | 1 (1=0-19% damage) | 1 (1=0-19% damage) | 1 (1=0-19% damage) | 1 (1=0-19% damage) | 1 (1=0-19% damage) | 2 (2=20-39% damage) | 1 (1=0-19% damage) | 4 (4=60-79% damage) | 3 (3=40-59% damage) | 2 (2=20-39% damage)
2 | Cn1ncc(-c2cccn(Cc3ccccc3)c2=O)c(O)c1=O [Compound 9.008] | 1 (1=0-19% damage) | 1 (1=0-19% damage) | 4 (4=60-79% damage) | 2 (2=20-39% damage) | 2 (2=20-39% damage) | 1 (1=0-19% damage) | 1 (1=0-19% damage) | 1 (1=0-19% damage) | 1 (1=0-19% damage) | 3 (3=40-59% damage) | 3 (3=40-59% damage) | 1 (1=0-19% damage)
3 | COCCn1cccc(-c2cnn(C)c(=O)c2O)c1=O [Compound 9.009] | 1 (1=0-19% damage) | 1 (1=0-19% damage) | 1 (1=0-19% damage) | 1 (1=0-19% damage) | 1 (1=0-19% damage) | 1 (1=0-19% damage) | 2 (2=20-39% damage) | 3 (3=40-59% damage) | 3 (3=40-59% damage) | 5 (5=80-100% damage) | 4 (4=60-79% damage) | 3 (3=40-59% damage)
4 | Cn1ncc(-c2ccc(C(F)(F)F)n(C)c2=O)c(O)c1=O [Compound 9.010] | 1 (1=0-19% damage) | 1 (1=0-19% damage) | 5 (5=80-100% damage) | 1 (1=0-19% damage) | 5 (5=80-100% damage) | 1 (1=0-19% damage) | 2 (2=20-39% damage) | 2 (2=20-39% damage) | 4 (4=60-79% damage) | 5 (5=80-100% damage) | 5 (5=80-100% damage) | 4 (4=60-79% damage)
5 | C=CCn1c(C(F)(F)F)ccc(-c2cnn(C)c(=O)c2O)c1=O [Compound 9.011] | 2 (2=20-39% damage) | 3 (3=40-59% damage) | 5 (5=80-100% damage) | 1 (1=0-19% damage) | 4 (4=60-79% damage) | 1 (1=0-19% damage) | 4 (4=60-79% damage) | 5 (5=80-100% damage) | 5 (5=80-100% damage) | 5 (5=80-100% damage) | 5 (5=80-100% damage) | 4 (4=60-79% damage)
6 | COc1ccc(-n2cccc(-c3cnn(C)c(=O)c3O)c2=O)cc1 [Compound 9.016] | 2 (2=20-39% damage) | 1 (1=0-19% damage) | 1 (1=0-19% damage) | 1 (1=0-19% damage) | 1 (1=0-19% damage) | 1 (1=0-19% damage) | 3 (3=40-59% damage) | 3 (3=40-59% damage) | 4 (4=60-79% damage) | 5 (5=80-100% damage) | 5 (5=80-100% damage) | 2 (2=20-39% damage)
7 | Cc1ccc(-n2cccc(-c3cnn(C)c(=O)c3O)c2=O)cc1 [Compound 9.017] | 2 (2=20-39% damage) | 1 (1=0-19% damage) | 1 (1=0-19% damage) | 1 (1=0-19% damage) | 1 (1=0-19% damage) | 2 (2=20-39% damage) | 2 (2=20-39% damage) | 2 (2=20-39% damage) | 5 (5=80-100% damage) | 4 (4=60-79% damage) | 3 (3=40-59% damage) | 2 (2=20-39% damage)
